Data: the supplement of paper PMC12463676, “Small-molecule dissolution of stress granules by redox modulation benefits ALS models” (Nature Chemical Biology, 2025)

What was measured:
potassium arsenate = compound: O=[As]([O-])(O)O.[K+] [potassium arsenate]; test: thermal stability z-score vs DMSO; higher = more thermally stabilized by treatment; settings: HeLa; arsenate concentration 1 mM
Procedure: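 Cellular thermal proteome profiling in HeLa cells treated with 1 mM arsenate for 1 h (DMSO pretreatment), heated to ten temperatures (37-66.3 °C). Soluble protein was quantified by TMT mass spectrometry relative to DMSO controls; the thermal stability score was transformed to a z-score; mean of n = 3 experiments.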

lipoamide = compound: NC(=O)CCCCC1CCSS1 [lipoamide]; test: as above; settings: HeLa, lipoamide concentration 100 µM
Procedure: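 Cellular thermal proteome profiling in HeLa cells. Cells were treated with 100 µM lipoamide for 1 h, with or without 1 mM arsenate for a further 1 h, then heated to ten temperatures (37-66.3 °C), and soluble protein was quantified by TMT mass spectrometry relative to 0.1% DMSO controls. The thermal stability score (sum of log2 fold changes minus the abundance score) was transformed to a z-score; mean of n = 3 experiments.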

[1] = arsenate co-treatment: 1 mM arsenate 1 h
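Note: each temperature applied for 3 min, abundance score taken as mean log2 fold change at the two lowest temperatures, z-score obtained by mean subtraction and division by SD.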

DOCK9 (UniProt Q9BZ29)
thermal stability z-score (potassium arsenate): -0.457
thermal stability z-score (lipoamide; [1]): -0.191
thermal stability z-score (lipoamide; arsenate co-treatment: none): -0.0295

TRAPPC9 (UniProt Q96Q05)
thermal stability z-score (potassium arsenate): 0.167
thermal stability z-score (lipoamide; [1]): 0.0964
thermal stability z-score (lipoamide; arsenate co-treatment: none): -0.258

CD44 (UniProt P16070)
thermal stability z-score (potassium arsenate): 0.197
thermal stability z-score (lipoamide; [1]): 0.358
thermal stability z-score (lipoamide; arsenate co-treatment: none): 0.287

C1ORF52 (UniProt Q8N6N3)
Chain of UniProt Q8N6N3 (Q8N6N3 whole entry): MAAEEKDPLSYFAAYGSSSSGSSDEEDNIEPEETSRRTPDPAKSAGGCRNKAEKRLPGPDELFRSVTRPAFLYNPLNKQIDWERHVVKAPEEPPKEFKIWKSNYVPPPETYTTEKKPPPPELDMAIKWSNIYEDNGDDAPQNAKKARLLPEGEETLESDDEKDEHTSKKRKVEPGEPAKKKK
thermal stability z-score (potassium arsenate): -0.417
thermal stability z-score (lipoamide; [1]): 0.477
thermal stability z-score (lipoamide; arsenate co-treatment: none): 0.0555

SCAMP3 (UniProt O14828)
thermal stability z-score (potassium arsenate): -0.277
thermal stability z-score (lipoamide; [1]): 0.525
thermal stability z-score (lipoamide; arsenate co-treatment: none): 0.319

PELP1 (UniProt Q8IZL8)
thermal stability z-score (potassium arsenate): 0.449
thermal stability z-score (lipoamide; [1]): 1.14
thermal stability z-score (lipoamide; arsenate co-treatment: none): 0.206

STAT1 (UniProt P42224)
thermal stability z-score (potassium arsenate): 0.502
thermal stability z-score (lipoamide; [1]): -0.65
thermal stability z-score (lipoamide; arsenate co-treatment: none): -0.206

EIF2B1 (UniProt Q14232)
Chain of UniProt Q14232 (Q14232 whole entry): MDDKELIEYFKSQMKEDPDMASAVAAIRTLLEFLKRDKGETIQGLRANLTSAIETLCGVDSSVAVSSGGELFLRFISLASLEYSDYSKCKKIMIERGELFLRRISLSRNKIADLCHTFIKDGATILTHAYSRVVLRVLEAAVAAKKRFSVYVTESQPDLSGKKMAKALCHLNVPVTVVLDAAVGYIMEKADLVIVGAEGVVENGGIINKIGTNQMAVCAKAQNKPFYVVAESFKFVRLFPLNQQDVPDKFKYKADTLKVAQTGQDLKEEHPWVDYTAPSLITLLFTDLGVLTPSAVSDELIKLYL
thermal stability z-score (potassium arsenate): 0.364
thermal stability z-score (lipoamide; [1]): 0.317
thermal stability z-score (lipoamide; arsenate co-treatment: none): 0.317

IPO5 (UniProt O00410)
thermal stability z-score (potassium arsenate): -0.498
thermal stability z-score (lipoamide; [1]): 0.21
thermal stability z-score (lipoamide; arsenate co-treatment: none): -0.103

DHX34 (UniProt Q14147)
thermal stability z-score (potassium arsenate): -0.164
thermal stability z-score (lipoamide; [1]): 0.0163
thermal stability z-score (lipoamide; arsenate co-treatment: none): -0.0341

MTG2 (UniProt Q9H4K7)
thermal stability z-score (potassium arsenate): 0.127
thermal stability z-score (lipoamide; [1]): -0.0209
thermal stability z-score (lipoamide; arsenate co-treatment: none): 0.00401

OPA1 (UniProt O60313)
thermal stability z-score (potassium arsenate): 0.749
thermal stability z-score (lipoamide; [1]): -0.697
thermal stability z-score (lipoamide; arsenate co-treatment: none): -0.456

NDUFV1 (UniProt P49821)
Chain of UniProt P49821 (P49821 whole entry): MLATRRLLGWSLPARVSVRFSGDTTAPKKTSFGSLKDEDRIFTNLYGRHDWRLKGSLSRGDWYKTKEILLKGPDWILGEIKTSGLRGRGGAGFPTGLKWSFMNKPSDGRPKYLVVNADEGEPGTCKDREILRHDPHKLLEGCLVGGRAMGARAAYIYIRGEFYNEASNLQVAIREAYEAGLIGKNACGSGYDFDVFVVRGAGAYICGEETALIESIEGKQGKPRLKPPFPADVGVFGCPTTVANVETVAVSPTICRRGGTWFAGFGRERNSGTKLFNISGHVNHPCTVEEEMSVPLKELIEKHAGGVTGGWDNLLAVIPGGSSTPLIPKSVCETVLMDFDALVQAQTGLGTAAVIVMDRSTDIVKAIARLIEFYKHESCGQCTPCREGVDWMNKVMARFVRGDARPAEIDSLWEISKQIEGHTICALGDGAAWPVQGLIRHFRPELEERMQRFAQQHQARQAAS
thermal stability z-score (potassium arsenate): 0.585
thermal stability z-score (lipoamide; [1]): 0.281
thermal stability z-score (lipoamide; arsenate co-treatment: none): 0.0892

KIAA0319L (UniProt Q8IZA0)
Chain of UniProt Q8IZA0 (Q8IZA0 whole entry): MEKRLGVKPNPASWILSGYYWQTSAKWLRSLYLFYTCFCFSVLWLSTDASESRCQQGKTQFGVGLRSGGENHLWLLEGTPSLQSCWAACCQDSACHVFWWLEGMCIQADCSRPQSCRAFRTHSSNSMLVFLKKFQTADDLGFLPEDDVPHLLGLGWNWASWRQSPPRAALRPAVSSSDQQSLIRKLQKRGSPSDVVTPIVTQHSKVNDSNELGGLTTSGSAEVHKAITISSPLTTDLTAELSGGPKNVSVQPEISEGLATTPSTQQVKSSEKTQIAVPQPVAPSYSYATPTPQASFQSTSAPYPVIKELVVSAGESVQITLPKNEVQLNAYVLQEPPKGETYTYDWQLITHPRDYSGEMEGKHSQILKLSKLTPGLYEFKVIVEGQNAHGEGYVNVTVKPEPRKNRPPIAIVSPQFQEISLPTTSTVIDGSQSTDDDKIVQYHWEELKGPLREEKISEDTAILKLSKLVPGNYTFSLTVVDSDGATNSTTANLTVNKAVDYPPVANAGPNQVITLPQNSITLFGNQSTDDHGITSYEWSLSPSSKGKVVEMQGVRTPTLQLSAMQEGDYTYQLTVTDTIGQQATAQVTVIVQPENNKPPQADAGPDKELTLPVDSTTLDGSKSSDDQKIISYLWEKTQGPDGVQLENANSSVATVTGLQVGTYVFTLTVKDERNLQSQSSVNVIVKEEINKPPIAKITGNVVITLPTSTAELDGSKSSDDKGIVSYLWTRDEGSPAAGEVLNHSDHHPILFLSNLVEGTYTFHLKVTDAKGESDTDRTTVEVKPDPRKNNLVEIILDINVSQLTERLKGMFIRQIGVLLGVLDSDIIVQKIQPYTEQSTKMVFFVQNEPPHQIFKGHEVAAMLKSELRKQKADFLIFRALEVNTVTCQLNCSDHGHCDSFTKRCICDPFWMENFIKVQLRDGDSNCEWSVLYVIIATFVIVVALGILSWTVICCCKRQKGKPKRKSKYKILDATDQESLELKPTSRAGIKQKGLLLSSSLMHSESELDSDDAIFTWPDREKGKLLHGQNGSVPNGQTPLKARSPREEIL
thermal stability z-score (potassium arsenate): -0.349
thermal stability z-score (lipoamide; [1]): 0.936
thermal stability z-score (lipoamide; arsenate co-treatment: none): 0.43

NOC2L (UniProt Q9Y3T9)
thermal stability z-score (potassium arsenate): 0.0133
thermal stability z-score (lipoamide; [1]): 0.154
thermal stability z-score (lipoamide; arsenate co-treatment: none): 0.208

RABGGTB (UniProt P53611)
Chain of UniProt P53611 (P53611 whole entry): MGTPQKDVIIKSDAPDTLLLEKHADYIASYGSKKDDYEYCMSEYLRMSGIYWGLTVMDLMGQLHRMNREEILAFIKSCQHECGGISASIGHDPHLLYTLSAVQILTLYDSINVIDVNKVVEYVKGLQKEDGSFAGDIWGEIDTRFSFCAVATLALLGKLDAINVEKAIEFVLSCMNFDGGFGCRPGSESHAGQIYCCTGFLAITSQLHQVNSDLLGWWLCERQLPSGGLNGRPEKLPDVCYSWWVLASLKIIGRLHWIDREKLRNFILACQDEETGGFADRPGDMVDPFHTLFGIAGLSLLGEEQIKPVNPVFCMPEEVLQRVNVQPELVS
thermal stability z-score (potassium arsenate): 1.46
thermal stability z-score (lipoamide; [1]): 0.508
thermal stability z-score (lipoamide; arsenate co-treatment: none): -0.0991

RFC4 (UniProt P35249)
thermal stability z-score (potassium arsenate): 0.802
thermal stability z-score (lipoamide; [1]): -0.184
thermal stability z-score (lipoamide; arsenate co-treatment: none): -0.331

CELF1 (UniProt Q92879)
thermal stability z-score (potassium arsenate): -0.593
thermal stability z-score (lipoamide; [1]): -1.1
thermal stability z-score (lipoamide; arsenate co-treatment: none): -0.66

APPBP2 (UniProt Q92624)
thermal stability z-score (potassium arsenate): -0.115
thermal stability z-score (lipoamide; [1]): -0.18
thermal stability z-score (lipoamide; arsenate co-treatment: none): 0.0712

AGPAT1 (UniProt Q99943)
Chain of UniProt Q99943 (Q99943 whole entry): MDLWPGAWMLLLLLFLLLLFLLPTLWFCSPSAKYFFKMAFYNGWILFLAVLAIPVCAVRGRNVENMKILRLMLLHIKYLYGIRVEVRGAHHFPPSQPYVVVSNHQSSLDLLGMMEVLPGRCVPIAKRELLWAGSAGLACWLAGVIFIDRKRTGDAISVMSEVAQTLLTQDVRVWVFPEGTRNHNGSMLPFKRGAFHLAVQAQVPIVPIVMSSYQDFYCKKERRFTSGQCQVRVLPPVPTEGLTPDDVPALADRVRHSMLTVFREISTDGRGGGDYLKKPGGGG
thermal stability z-score (potassium arsenate): 0.0795
thermal stability z-score (lipoamide; [1]): -0.0471
thermal stability z-score (lipoamide; arsenate co-treatment: none): -0.591

PPP1CA (UniProt P62136)
Chain of UniProt P62136 (P62136 whole entry): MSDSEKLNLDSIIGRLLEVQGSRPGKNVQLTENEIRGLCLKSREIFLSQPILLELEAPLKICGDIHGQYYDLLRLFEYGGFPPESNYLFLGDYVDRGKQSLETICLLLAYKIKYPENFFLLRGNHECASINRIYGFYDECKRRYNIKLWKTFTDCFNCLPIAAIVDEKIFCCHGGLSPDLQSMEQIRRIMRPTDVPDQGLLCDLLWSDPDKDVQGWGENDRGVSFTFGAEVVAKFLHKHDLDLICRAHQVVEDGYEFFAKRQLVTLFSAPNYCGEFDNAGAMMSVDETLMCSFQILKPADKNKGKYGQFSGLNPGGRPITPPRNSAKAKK
thermal stability z-score (potassium arsenate): -0.971
thermal stability z-score (lipoamide; [1]): 0.221
thermal stability z-score (lipoamide; arsenate co-treatment: none): -0.27

LAMP1 (UniProt P11279)
Chain of UniProt P11279 (P11279 whole entry): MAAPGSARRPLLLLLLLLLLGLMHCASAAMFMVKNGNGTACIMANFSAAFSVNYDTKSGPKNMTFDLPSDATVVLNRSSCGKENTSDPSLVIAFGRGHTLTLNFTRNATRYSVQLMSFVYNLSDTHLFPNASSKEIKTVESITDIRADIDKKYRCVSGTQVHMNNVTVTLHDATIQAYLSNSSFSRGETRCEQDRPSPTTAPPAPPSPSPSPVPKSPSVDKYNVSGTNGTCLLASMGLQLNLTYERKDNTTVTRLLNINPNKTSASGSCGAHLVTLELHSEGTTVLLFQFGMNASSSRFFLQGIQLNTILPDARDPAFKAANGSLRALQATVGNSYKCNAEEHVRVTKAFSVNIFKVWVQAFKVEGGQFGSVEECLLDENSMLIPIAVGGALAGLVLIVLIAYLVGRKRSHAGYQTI
thermal stability z-score (potassium arsenate): -0.0209
thermal stability z-score (lipoamide; [1]): 0.396
thermal stability z-score (lipoamide; arsenate co-treatment: none): 0.531

DHPS (UniProt P49366)
Chain of UniProt P49366 (P49366 whole entry): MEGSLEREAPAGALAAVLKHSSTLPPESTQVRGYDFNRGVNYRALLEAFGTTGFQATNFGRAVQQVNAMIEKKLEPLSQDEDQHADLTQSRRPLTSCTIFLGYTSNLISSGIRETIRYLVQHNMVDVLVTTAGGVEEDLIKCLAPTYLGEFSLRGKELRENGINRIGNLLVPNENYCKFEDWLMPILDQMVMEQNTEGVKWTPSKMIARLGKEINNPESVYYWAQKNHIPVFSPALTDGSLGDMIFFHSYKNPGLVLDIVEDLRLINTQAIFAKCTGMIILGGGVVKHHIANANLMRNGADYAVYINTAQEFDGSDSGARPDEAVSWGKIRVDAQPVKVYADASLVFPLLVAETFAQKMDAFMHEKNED
thermal stability z-score (potassium arsenate): 0.603
thermal stability z-score (lipoamide; [1]): 0.538
thermal stability z-score (lipoamide; arsenate co-treatment: none): 0.536

PDIA4 (UniProt P13667)
thermal stability z-score (potassium arsenate): 0.648
thermal stability z-score (lipoamide; [1]): -2.99
thermal stability z-score (lipoamide; arsenate co-treatment: none): -2.13

PPP4R3B (UniProt Q5MIZ7)
thermal stability z-score (potassium arsenate): -0.227
thermal stability z-score (lipoamide; [1]): -0.195
thermal stability z-score (lipoamide; arsenate co-treatment: none): -0.1

TTC39C (UniProt Q8N584)
Chain of UniProt Q8N584 (Q8N584 whole entry): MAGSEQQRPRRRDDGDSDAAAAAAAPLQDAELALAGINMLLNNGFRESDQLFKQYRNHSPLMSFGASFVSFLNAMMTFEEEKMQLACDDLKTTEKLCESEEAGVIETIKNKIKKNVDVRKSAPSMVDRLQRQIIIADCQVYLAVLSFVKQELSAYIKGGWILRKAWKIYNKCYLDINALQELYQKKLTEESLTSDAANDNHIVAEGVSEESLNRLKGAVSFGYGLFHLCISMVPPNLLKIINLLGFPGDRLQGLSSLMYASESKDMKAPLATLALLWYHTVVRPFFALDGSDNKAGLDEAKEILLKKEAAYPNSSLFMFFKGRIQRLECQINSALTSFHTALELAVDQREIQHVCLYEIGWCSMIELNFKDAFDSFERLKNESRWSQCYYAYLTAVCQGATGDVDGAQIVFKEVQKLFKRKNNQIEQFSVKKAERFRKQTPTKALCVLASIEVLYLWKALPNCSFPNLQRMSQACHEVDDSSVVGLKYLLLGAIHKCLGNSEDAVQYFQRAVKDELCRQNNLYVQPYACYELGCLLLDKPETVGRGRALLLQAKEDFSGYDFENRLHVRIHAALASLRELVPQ
thermal stability z-score (potassium arsenate): 0.0855
thermal stability z-score (lipoamide; [1]): 0.0518
thermal stability z-score (lipoamide; arsenate co-treatment: none): 0.22

DIAPH3 (UniProt Q9NSV4)
thermal stability z-score (potassium arsenate): -0.0767
thermal stability z-score (lipoamide; [1]): -1.4
thermal stability z-score (lipoamide; arsenate co-treatment: none): -0.761

AMFR (UniProt Q9UKV5)
Chain of UniProt Q9UKV5 (Q9UKV5 whole entry): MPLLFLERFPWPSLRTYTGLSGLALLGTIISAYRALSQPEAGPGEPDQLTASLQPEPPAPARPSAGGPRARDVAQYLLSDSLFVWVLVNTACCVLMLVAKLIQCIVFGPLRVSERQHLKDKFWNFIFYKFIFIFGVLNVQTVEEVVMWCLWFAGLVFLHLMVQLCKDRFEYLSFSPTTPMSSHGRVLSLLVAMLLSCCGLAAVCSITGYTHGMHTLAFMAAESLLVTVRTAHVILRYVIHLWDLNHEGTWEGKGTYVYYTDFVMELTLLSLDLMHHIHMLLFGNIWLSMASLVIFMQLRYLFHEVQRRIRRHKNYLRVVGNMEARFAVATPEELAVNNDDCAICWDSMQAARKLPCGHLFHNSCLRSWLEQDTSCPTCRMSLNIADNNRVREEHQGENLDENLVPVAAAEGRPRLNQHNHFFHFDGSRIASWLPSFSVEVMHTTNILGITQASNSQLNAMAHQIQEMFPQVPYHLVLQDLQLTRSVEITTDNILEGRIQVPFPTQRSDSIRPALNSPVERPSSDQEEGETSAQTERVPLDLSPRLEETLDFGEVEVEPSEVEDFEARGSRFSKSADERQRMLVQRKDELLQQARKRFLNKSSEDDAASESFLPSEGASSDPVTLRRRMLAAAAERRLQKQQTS
thermal stability z-score (potassium arsenate): 0.444
thermal stability z-score (lipoamide; [1]): -0.269
thermal stability z-score (lipoamide; arsenate co-treatment: none): -0.845

USP13 (UniProt Q92995)
thermal stability z-score (potassium arsenate): -0.0408
thermal stability z-score (lipoamide; [1]): 0.464
thermal stability z-score (lipoamide; arsenate co-treatment: none): 0.0604

SOD1 (UniProt P00441)
thermal stability z-score (potassium arsenate): -0.236
thermal stability z-score (lipoamide; [1]): -0.57
thermal stability z-score (lipoamide; arsenate co-treatment: none): -0.258
